How the values were obtained:
[1] = biological target: T1, LPAR1 (Homo sapiens, UniProt Q92633); test: LPAR1 Arrestin Assay (arrestin reporter assay); type: cell-based; conditions: U2OS cells stably expressing the LPAR1 receptor, 200 nM 18:1 LPA (EC80); for Emax: read-out: Maximum Inhibition
T1 construct: host or cells: U2OS
Method in brief: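 U2OS cells stably expressing LPAR1 pretreated 1 h at 37° C with compound, then stimulated 5 h with 200 nM 18:1 LPA (EC80), 0.1% DMSO, 0.02% BSA. β-lactamase reporter read by CCF4-AM FRET (460/530 nm emission) after 2 h dye load; 12-point curves, duplicate, n≥3.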

[2] = tested on: LPA-induced MCP-1 in NRK-49F cells; test: LPA-induced MCP-1 AlphaLISA assay; type: cell-based; conditions: Rattus norvegicus, final LPA 10 μM, 7 hours; for Emax: read-out: Maximum Inhibition
Method in brief: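 NRK-49F rat fibroblasts, serum-starved overnight, pretreated with compound for 30 min at 37 °C (1% DMSO final), then stimulated with 10 μM LPA final. MCP-1 in the supernatant was measured by mouse/rat CCL2 AlphaLISA. IC50 values came from four-parameter logistic fits of the ratio data.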

T1 sequence (Q92633 whole entry): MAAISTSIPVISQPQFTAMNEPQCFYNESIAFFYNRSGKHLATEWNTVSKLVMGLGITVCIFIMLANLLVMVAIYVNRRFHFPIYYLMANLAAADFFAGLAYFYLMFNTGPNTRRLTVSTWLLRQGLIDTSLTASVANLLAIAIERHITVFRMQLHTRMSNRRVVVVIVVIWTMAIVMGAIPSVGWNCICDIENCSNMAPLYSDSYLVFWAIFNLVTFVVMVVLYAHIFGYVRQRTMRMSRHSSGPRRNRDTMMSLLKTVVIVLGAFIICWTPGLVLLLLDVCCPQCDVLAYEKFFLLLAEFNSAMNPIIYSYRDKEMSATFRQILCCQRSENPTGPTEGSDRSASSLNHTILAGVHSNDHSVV

COc1cc(C(=O)N(CCCc2cccc(F)c2)CCSCC(=O)O)cc(OC)c1C [Example 117, [(2-{(3,5-dimethoxy-4-methylbenzoyl)[3-(3-fluorophenyl)propyl]amino}ethyl)sulfanyl]acetic Acid]
IC50 [1]: 103 nM
Emax [1]: 116%
IC50 [2]: 180 nM
Emax [2]: 91%

COc1cc(C(=O)N(CCCc2cccc(Cl)c2)CCSCC(=O)O)cc(OC)c1C [Example 122, [(2-{[3-(3-chlorophenyl)propyl](3,5-dimethoxy-4-methylbenzoyl)amino}ethyl)sulfanyl]acetic Acid]
IC50 [1]: 152 nM
Emax [1]: 127%
IC50 [2]: 419 nM
Emax [2]: 97%

COc1cc(C(=O)N(CCCc2cccc(F)c2)CCOCC(=O)O)cc(OC)c1C [Example 129, (2-{(3,5-dimethoxy-4-methylbenzoyl)[3-(3-fluorophenyl)propyl]amino}ethoxy)acetic Acid]
IC50 [1]: 218 nM
Emax [1]: 124%
IC50 [2]: 968 nM
Emax [2]: 90%

COc1cc(C(=O)N(CCCc2ccccc2Cl)CCOCC(=O)O)cc(OC)c1C [Example 131, (2-{[3-(2-chlorophenyl)propyl](3,5-dimethoxy-4-methylbenzoyl)amino}ethoxy)acetic Acid]
IC50 [1]: 2140 nM
Emax [1]: 120%
IC50 [2]: 1730 nM
Emax [2]: 71%

COc1cc(C(=O)N(CCCc2ccc(C)o2)CCSCC(=O)O)cc(OC)c1C [Example 132, [(2-{(3,5-dimethoxy-4-methylbenzoyl)[3-(5-methylfuran-2-yl)propyl]amino}ethyl)sulfanyl]acetic Acid]
IC50 [1]: 490 nM
Emax [1]: 126%
IC50 [2]: 783 nM
Emax [2]: 80%

COc1cc(C(=O)N(CCCc2ccccc2)CCCC(C)(O)C(=O)O)cc(OC)c1C (stereo not drawn) [Example 155, 5-[(3,5-dimethoxy-4-methylbenzoyl)(3-phenylpropyl)amino]-2-hydroxy-2-methylpentanoic Acid]
IC50 [1]: 401 nM
Emax [1]: 125%
IC50 [2]: 763 nM
Emax [2]: 81%

COc1cc(C(=O)N(CCCc2ccccc2)CCOCC(=O)NS(C)(=O)=O)cc(OC)c1C [Example 157, N-(2-{2-[(methanesulfonyl)amino]-2-oxoethoxy}ethyl)-3,5-dimethoxy-4-methyl-N-(3-phenylpropyl)benzamide]
IC50 [1]: 108 nM
Emax [1]: 128%
IC50 [2]: 460 nM
Emax [2]: 77%

COc1cc(C(=O)N(CCCCC(=O)O)CCCc2ccco2)cc(OC)c1C [Example 173, 5-{(3,5-dimethoxy-4-methylbenzoyl)[3-(furan-2-yl)propyl]amino}pentanoic Acid]
IC50 [1]: 295 nM
Emax [1]: 122%
IC50 [2]: 4540 nM
Emax [2]: 64%

COc1cc(C(=O)N(CCCCC(=O)O)CCCc2ccc(Cl)o2)cc(OC)c1C [Example 185, 5-{[3-(5-chlorofuran-2-yl)propyl](3,5-dimethoxy-4-methylbenzoyl)amino}pentanoic Acid]
IC50 [1]: 288 nM
Emax [1]: 122%
IC50 [2]: 536 nM
Emax [2]: 84%

— US20190119200A1, “TERTIARY AMIDES AND METHOD OF USE” (AbbVie Inc., priority 2016, published 2019)
